{
  "source": "patent US10849904B2",
  "about": "“Methods for treatment of retinal disease by photoreceptor gene expression modulation” (University of Washington, priority 2015, dated 2020)",
  "key": {"S opsin+ photoreceptors": {"system": "S opsin+ photoreceptors", "assay": "Injection of timed-pregnant dams at E14 and E17, S opsin+ photoreceptors in P0 pups", "assay_type": "in vivo, mouse", "settings": "dams injected 100 μl of 50 mM at E14 and E17, pups analysed at P0, vs controls", "procedure": "Nr2e3 is expressed in developing rods prior to birth, and so to test whether PR1 could affect prenatal rod development, wild type timed-pregnant dams were injected with 100 μl of 50 mM PR1 at E14 and E17, during peak S cone photoreceptor genesis and the onset of Nr2e3 expression (FIG. 7F). The pups were sacrificed at P0 and their retinas collected for staining and for quantifying S opsin+ photoreceptors. […] To determine if PR1 affected rhodopsin expression in developing rods in vivo, pups were injected with 20 μl of 50 mM PR1 or an equal volume of DMSO at P2 or P3 (FIG. 7I). The pups were sacrificed the following day and analyzed rhodopsin expression by qPCR.\nRetinal explants or eyecups were fixed in 4% PFA in 1×PBS for 20 minutes at room temperature and then cryoprotected in 30% sucrose in 1×PBS overnight at 4° C. Samples were embedded in OCT (Sakura Finetek), frozen on dry ice, and then sectioned at 14-16 μm on a cryostat (Leica). Slides were blocked with a solution containing 10% Normal Horse Serum (Vector Labs) and 0.5% Triton X-100 (Sigma-Aldrich) in 1×PBS for 1 hour at room temperature and then stained overnight at 4° C. with primary antibodies diluted in blocking solution. […]"}, "rhodopsin promoter": {"system": "rhodopsin promoter", "assay": "Dual luciferase rhodopsin promoter reporter assay in HEK293T cells", "assay_type": "cell-based", "settings": "10 μM, 2 days", "text": "Nr2e3, Crx, and Nrl are known to activate rod gene expression by forming a complex at the promoters of rod genes. To test whether PR1 might interfere with this complex, a luciferase reporter assay was used. For this assay, the rhodopsin promoter driving firefly luciferase was co-transfected with Nrl, Nr2e3, or Crx or all of these transcription factors together into HEK293T cells. A large synergy in the activation of the rhodopsin reporter was found with the combination of these three transcription factors (FIG. 6G).\nHEK293T cells were transfected with 1 μg of the luciferase reporter BR-225Luc, 1 ng of the control pRL-CMV (Promega) and 100 ng of hNRL-pCMVSport6 (Open Biosystems), hCRX-pCMVSport6 (Open Biosystems), or hNR2E3-pcDNA3.1/HisC in 24 well plates using Lipofectamine 3000 reagent (Thermo Fisher Scientific). Transfection reagents were removed the following day and replaced with media containing DMSO or 10 μM PR1 for 2 days. Cells were lysed and firefly and renilla luciferase activity was measured with the Dual-Luciferase Reporter Assay System (Promega) using a 1420 Multilabel Victor3V plate reader."}},
  "data": [
    {"smiles": "Cc1cc(C)cc(NC(=O)CCc2nc3sc4c(c3c(=O)[nH]2)CCCC4)c1", "note": "[PR1, N-(3,5-dimethylphenyl)-3-(4-oxo-5,6,7,8-tetrahydro-3H-[1]benzothiolo[2,3-d]pyrimidin-2-yl)propanamide]", "values": [
      {"measurement": "number of S opsin-positive cells in pups", "setting": "S opsin+ photoreceptors", "result": "increase in the number of S opsin-positive cells"},
      {"measurement": "activation of the rhodopsin promoter reporter", "setting": "rhodopsin promoter; HEK293T transfected with Crx and Nrl", "result": "large reduction"},
      {"measurement": "activation of the rhodopsin promoter reporter", "setting": "rhodopsin promoter; HEK293T transfected with Nr2e3, Crx and Nrl", "result": "large reduction"}
    ]}
  ]
}
